How the values were obtained:
[1] = tested on: HTB94 chondrosarcoma cells; assay: Accumulation of endogenous TIMP-3 in medium of HTB94 cells; type: cell-based; settings: suramin 50–200 µg/ml, 30 hours
Procedure: Cells (HTB94 chondrosarcoma cells, primary porcine chondrocytes, or human osteoarthritic chondrocytes) were plated overnight (6 × 10^5 cells per well of a 12-well plate) in DMEM containing 10% FCS and washed three times in serum-free DMEM.
Media were harvested, precipitated with trichloroacetic acid, and analyzed by immunoblotting using a rabbit anti–TIMP-3 polyclonal antibody (AB6000; Millipore, Hertfordshire, UK) and an alkaline phosphatase–conjugated anti-rabbit secondary antibody (Promega). […]

[2] = tested on: primary chondrocytes isolated from normal porcine cartilage; assay: Accumulation of endogenous TIMP-3 in medium of porcine chondrocytes; type: cell-based; settings: suramin 0–250 µg/ml, 48 hours
Procedure: (§1) Cells (HTB94 chondrosarcoma cells, primary porcine chondrocytes, or human osteoarthritic chondrocytes) were plated overnight (6 × 10^5 cells per well of a 12-well plate) in DMEM containing 10% FCS and washed three times in serum-free DMEM. […] Media were harvested, precipitated with trichloroacetic acid, and analyzed by immunoblotting using a rabbit anti–TIMP-3 polyclonal antibody (AB6000; Millipore, Hertfordshire, UK) and an alkaline phosphatase–conjugated anti-rabbit secondary antibody (Promega). TIMP-3 in the medium (mean ± S.D., n = 3) was calculated relative to the pixel volume of untreated cells (defined as 1).

[3] = tested on: rat inflammatory arthritis model; set-up: method as in Sahu et al., 2012; settings: ref Sahu et al., 2012; cited from earlier work
MMP-2 = molecular target: T1, MMP-2 (Homo sapiens, UniProt P08253); assay: MMP-2 activity in vitro (data not shown); type: biochemical
T1 sequence (P08253 110-660): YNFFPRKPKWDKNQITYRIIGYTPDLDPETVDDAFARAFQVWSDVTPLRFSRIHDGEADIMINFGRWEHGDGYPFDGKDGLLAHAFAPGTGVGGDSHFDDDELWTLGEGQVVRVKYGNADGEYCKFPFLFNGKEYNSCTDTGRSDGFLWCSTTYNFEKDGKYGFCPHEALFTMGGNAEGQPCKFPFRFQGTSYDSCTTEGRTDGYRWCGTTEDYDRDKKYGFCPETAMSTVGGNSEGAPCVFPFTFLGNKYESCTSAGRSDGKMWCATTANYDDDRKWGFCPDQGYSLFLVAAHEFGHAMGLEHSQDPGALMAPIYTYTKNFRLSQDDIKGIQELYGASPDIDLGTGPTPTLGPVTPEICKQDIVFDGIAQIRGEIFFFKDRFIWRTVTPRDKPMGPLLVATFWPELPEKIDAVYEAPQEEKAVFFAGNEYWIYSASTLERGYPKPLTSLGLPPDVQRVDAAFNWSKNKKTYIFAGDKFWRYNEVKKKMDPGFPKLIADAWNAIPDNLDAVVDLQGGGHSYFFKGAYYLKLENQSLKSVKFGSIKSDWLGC

TIMP-3 mRNA [4] = assay: TIMP-3 mRNA analysis in HTB94 cells (quantitative PCR); type: cell-based; settings: suramin 0–250 µg/ml, 18 hours
Procedure: (§2) HTB94 chondrosarcoma cells or primary human chondrocytes (1 × 10^6 cells) were treated in triplicate with 0–250 µg/ml suramin in serum-free DMEM for 18–48 hours. Total RNA was isolated from cells using an RNeasy mini kit (Qiagen, Crawley, UK) and cDNA was synthesized (reverse transcriptase kit; Applied Biosystems, Foster City, CA). Levels of TIMP-1, TIMP-2, TIMP-3, LRP1, and RPLP0 internal reference mRNA were quantified by real-time polymerase […] chain reaction on a Corbett Rotor-Gene 6000 (Corbett Life Science, Mortlake, NSW, Australia) using TaqMan Fast Universal PCR Master Mix (Applied Biosystems) and TaqMan probes (Applied Biosystems) Hs01092512_g1 for TIMP-1, Hs00234278_m1 for TIMP-2, Hs00165949_m1 for TIMP-3, Hs00233856_m1 for LRP1, and Hs99999902_m1 for RPLP0. The ΔΔ threshold cycle values (mean ± S.D., n = 3 technical replicates) are shown relative to control untreated HTB94 cells (defined as 1).

LRP1 ectodomain = assay: Shedding of LRP1 ectodomain into medium of HTB94 cells (immunoblot); type: cell-based; settings: suramin 50–250 µg/ml, 30 hours
[5] = tested on: primary chondrocytes isolated from human OA cartilage; assay: Accumulation of endogenous TIMP-3 in medium of human OA chondrocytes; type: cell-based; settings: suramin 0–250 µg/ml, 48 hours
Procedure: as §1

human OA chondrocytes = assay: Cell viability assay (MTS), human OA chondrocytes; type: cell-based; settings: suramin 0–250 µg/ml, 48 hours
Procedure: HTB94 chondrosarcoma cells or human OA chondrocytes (10^3 cells per well in 96-well plates) were plated overnight in DMEM with 10% FCS. Cells were washed in serum-free cartilage medium and treated for 48–72 hours with suramin (0–250 µg/ml) or sodium nitroprusside (10 mM) as a control to induce cell death. Cell viability was then assessed using the 3-(4,5-dimethylthiazol-2-yl)-5-(3-carboxymethoxyphenyl)-2-(4-sulfophenyl)-2H-tetrazolium CellTiter Cell Proliferation Assay (Promega) according to the manufacturer’s instructions (mean ± S.D., n = 3).

TIMP-3 mRNA [6] = assay: TIMP-3 mRNA analysis in human OA chondrocytes (quantitative PCR); type: cell-based; settings: suramin 0–250 µg/ml, 48 hours
Procedure: as §2

TIMP-2 mRNA = TIMP-2 mRNA analysis in HTB94 cells (quantitative PCR); type: cell-based; settings: suramin 0–250 µg/ml, 18 hours
Procedure: as §2

Cc1ccc(C(=O)Nc2ccc(S(=O)(=O)O)c3cc(S(=O)(=O)O)cc(S(=O)(=O)O)c23)cc1NC(=O)c1cccc(NC(=O)Nc2cccc(C(=O)Nc3cc(C(=O)Nc4ccc(S(=O)(=O)O)c5cc(S(=O)(=O)O)cc(S(=O)(=O)O)c45)ccc3C)c2)c1 [suramin]
endogenous TIMP-3 in the medium [1]: accumulated | endocytosis of endogenously expressed TIMP-3 [2]: inhibited endocytosis | cartilage damage [3]: ameliorate cartilage damage | MMP-2 activity in vitro (MMP-2): inhibit MMP-2 activity | TIMP-3 mRNA levels (TIMP-3 mRNA [4]): not associated with any significant change | shedding of LRP1 ectodomain into the medium (LRP1 ectodomain): not affected | endocytosis of endogenously expressed TIMP-3 [5]: inhibited endocytosis | cell viability (MTS) (human OA chondrocytes): did not affect | cell viability (MTS) (human OA chondrocytes; listed as Suramin): without any significant change | TIMP-3 mRNA levels (TIMP-3 mRNA [6]): without any significant change | TIMP-2 mRNA levels (TIMP-2 mRNA): no effect

Reference: PMC5588548, “Suramin Inhibits Osteoarthritic Cartilage Degradation by Increasing Extracellular Levels of Chondroprotective Tissue Inhibitor of Metalloproteinases 3” (Molecular Pharmacology, 2017)
